Measurements from patent US11427548B2 (Arvinas Operations, Inc., priority 2015, dated 2022).
Read-outs that look alike come from different tables or passages of the source.

Molecular target: T1, Androgen Receptor (Homo sapiens, UniProt P10275)
T1 construct: endogenous in cells; host or cells: VCaP cells
T1 sequence (P10275 1-920): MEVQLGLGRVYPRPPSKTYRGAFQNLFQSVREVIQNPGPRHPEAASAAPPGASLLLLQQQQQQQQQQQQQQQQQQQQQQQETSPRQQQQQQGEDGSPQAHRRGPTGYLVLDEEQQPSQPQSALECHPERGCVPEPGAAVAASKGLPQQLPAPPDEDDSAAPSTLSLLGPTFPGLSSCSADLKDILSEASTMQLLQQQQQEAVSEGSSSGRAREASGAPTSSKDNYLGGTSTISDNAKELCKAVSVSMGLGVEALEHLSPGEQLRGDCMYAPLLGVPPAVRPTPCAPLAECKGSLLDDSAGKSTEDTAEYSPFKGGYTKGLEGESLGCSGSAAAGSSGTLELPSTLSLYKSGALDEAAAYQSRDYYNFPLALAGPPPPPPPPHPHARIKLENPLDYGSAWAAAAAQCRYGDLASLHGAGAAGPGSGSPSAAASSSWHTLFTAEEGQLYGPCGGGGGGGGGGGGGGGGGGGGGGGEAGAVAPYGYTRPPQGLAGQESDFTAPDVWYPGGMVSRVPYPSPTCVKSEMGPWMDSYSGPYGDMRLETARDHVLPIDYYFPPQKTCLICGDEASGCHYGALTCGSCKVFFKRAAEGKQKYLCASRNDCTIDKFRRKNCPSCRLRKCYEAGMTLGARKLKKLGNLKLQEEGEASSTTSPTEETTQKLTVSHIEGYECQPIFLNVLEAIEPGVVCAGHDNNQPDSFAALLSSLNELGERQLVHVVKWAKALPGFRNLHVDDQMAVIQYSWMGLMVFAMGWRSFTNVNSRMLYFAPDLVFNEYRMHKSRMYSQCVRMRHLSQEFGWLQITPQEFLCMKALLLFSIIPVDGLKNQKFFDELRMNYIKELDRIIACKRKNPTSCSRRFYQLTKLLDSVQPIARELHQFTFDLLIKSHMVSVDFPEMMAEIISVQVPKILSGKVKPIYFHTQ
Assay: Androgen Receptor ELISA assay (PathScan AR ELISA) in VCaP cells: AR degradation, Dmax and DC50
Assay type: cell-based
Summary of the method: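 VCaP cells in phenol red-free RPMI with 5% charcoal-stripped FBS were grown at least 3 days, then given compound as 7 half-log doses in 0.1% DMSO with 0.1 nM R1881 for 24 h. Lysates went into a sandwich AR ELISA with TMB read at 450 nm.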

[1] = read-out: VCaP DC50; VCaP cells; Table 34
[2] = read-out: VCaP DC50; concentration that caused 50% Androgen Receptor degradation, VCaP cells (Table 32)
[3] = VCaP cells; Table 35; read-out: VCaP DC50
[4] = VCaP, VCaP cells; Table 35; read-out: VCaP Dmax (%)
[5] = VCaP cells; Table 36; read-out: VCaP DC50
[6] = VCaP, VCaP cells; Table 36; read-out: VCaP Dmax (%)

SMILES	Dmax (VCaP, read-out: VCaP Dmax (%))	DC50 [5]	Dmax [6]	further results
CC(C)(C)[C@H](NC(=O)COCCCOCCCCCOc1ccc(N2C(=S)N(c3ccc(C#N)c(Cl)c3)C(=O)C2(C)C)cc1)C(=O)N1C[C@H](O)C[C@H]1C(=O)NCc1ccc(-c2cnco2)cc1 [Example 345]	51 to 70%			DC50 [1]: < 0.05 µM
Cc1ncsc1-c1ccc(CNC(=O)[C@@H]2C[C@@H](O)CN2C(=O)[C@@H](NC(=O)COCCCOCCCCOc2cccc(N3C(=S)N(c4ccc(C#N)c(C(F)(F)F)c4)C(=O)C3(C)C)c2)C(C)(C)C)cc1 [Example 321]	26 to 50%			DC50 [1]: < 0.05 µM
CC(C)(C)[C@H](NC(=O)COCCCCOc1ccc(-c2ccc(N3C(=S)N(c4ccc(C#N)c(Cl)c4)C(=O)C3(C)C)cc2)nc1)C(=O)N1C[C@H](O)C[C@H]1C(=O)NCc1ccc(-c2cnco2)cc1 [Example 89]	> 71%			DC50 [2]: < 0.05 µM
Cc1ncsc1-c1ccc(CNC(=O)[C@@H]2C[C@@H](O)CN2C(=O)[C@@H](NC(=O)COCCNc2ccc(-c3c(F)cc(C(=O)N[C@H]4C(C)(C)[C@H](Oc5ccc(C#N)c(Cl)c5)C4(C)C)cc3F)cn2)C(C)(C)C)cc1 [Example 513]				DC50 [3]: < 0.05 µM; Dmax [4]: > 71%
Cc1ncsc1-c1ccc(CNC(=O)[C@@H]2C[C@@H](O)CN2C(=O)[C@@H](NC(=O)CCCOCCCOCCOc2ccc(N3C(=S)N(c4ccc(C#N)c(C(F)(F)F)c4)C(=O)C3(C)C)cc2)C(C)(C)C)cc1 [Example 315]	26 to 50%			DC50 [1]: 0.051 to 0.5 µM
Cc1ncsc1-c1ccc([C@H](C)NC(=O)[C@@H]2C[C@@H](O)CN2C(=O)[C@@H](NC(=O)COCCCCOc2ccc(-c3ccc(N4C(=S)N(c5ccc(C#N)c(C(F)(F)F)c5)C(=O)C4(C)C)cc3)cc2)C(C)(C)C)cc1 [Example 95, (2S,4R)-1-[(2S)-2-(2-{4-[4-(4-{3-[4-cyano-3-(trifluoromethyl)phenyl]-5,5-dimethyl-4-oxo-2-sulfanylideneimidazolidin-1-yl}phenyl)phenoxy]butoxy}acetamido)-3,3-dimethylbutanoyl]-4-hydroxy-N-[(1S)-1-[4-(4-methyl-1,3-thiazol-5-yl)phenyl]ethyl]pyrrolidine-2-carboxamide]	> 71%			DC50 [2]: < 0.05 µM
Cc1ncsc1-c1ccc(CNC(=O)[C@@H]2C[C@@H](O)CN2C(=O)C(NC(=O)COCCN2CCN(c3ccc(C(=O)N[C@H]4C(C)(C)[C@H](Oc5ccc(C#N)c(C(F)(F)F)c5)C4(C)C)cn3)C(=O)C2)C(C)(C)C)cc1 (stereo partly drawn) [Example 711, N-((1r,3r)-3-(4-cyano-3-(trifluoromethyl)phenoxy)-2,2,4,4-tetramethylcyclobutyl)-6-(4-(2-(2-(((S)-1-((2S,4R)-4-hydroxy-2-((4-(4-methylthiazol-5-yl)benzyl)carbamoyl)pyrrolidin-1-yl)-3,3-dimethyl-1-oxobutan-2-yl)amino)-2-oxoethoxy)ethyl)-2-oxopiperazin-1-yl)nicotinamide]		< 0.05 µM		VCaP Dmax (%) (VCaP cells; Table 36): + (Dmax ≤ 25%)
Cc1ncsc1-c1ccc(CNC(=O)[C@@H]2C[C@@H](O)CN2C(=O)[C@@H](NC(=O)COCC2CC3(C2)CC(COc2ccc(N4C(=S)N(c5ccc(C#N)c(C(F)(F)F)c5)C(=O)C45CCC5)cc2)C3)C(C)(C)C)cc1 (stereo partly drawn) [Example 203, (2S,4R)-1-[(2S)-2-[2-({6-[(4-{7-[4-cyano-3-(trifluoromethyl)phenyl]-8-oxo-6-sulfanylidene-5,7-diazaspiro[3.4]octan-5-yl}phenoxy)methyl]spiro[3.3]heptan-2-yl}methoxy)acetamido]-3,3-dimethylbutanoyl]-4-hydroxy-N-{[4-(4-methyl-1,3-thiazol-5-yl)phenyl]methyl} pyrrolidine-2-carboxamide]	> 71%			DC50 (read-out: VCaP DC50; VCaP cells; concentration that caused 50% Androgen Receptor degradation): < 0.05 µM
Cc1ncsc1-c1ccc([C@H](C)NC(=O)[C@@H]2C[C@@H](O)CN2C(=O)C(c2cc(CCN3CCN(c4ccc(C(=O)N[C@H]5C(C)(C)[C@H](Oc6ccc(C#N)c(Cl)c6)C5(C)C)cn4)CC3)no2)C(C)C)cc1 (stereo partly drawn) [Example 838, N-((1r,3r)-3-(3-chloro-4-cyanophenoxy)-2,2,4,4-tetramethylcyclobutyl)-6-(4-(2-(5-(1-((2S,4R)-4-hydroxy-2-(((S)-1-(4-(4-methylthiazol-5-yl)phenyl)ethyl)carbamoyl)pyrrolidin-1-yl)-3-methyl-1-oxobutan-2-yl)isoxazol-3-yl)ethyl)piperazin-1-yl) nicotinamide]		< 0.05 µM	51 to 70%	
Cc1ncsc1-c1ccc([C@H](C)NC(=O)C2C[C@@H](O)CN2C(=O)[C@@H](NC(=O)CCCC2(N3CCN(c4ccc(C(=O)N[C@H]5C(C)(C)[C@H](Oc6ccc(C#N)c(Cl)c6)C5(C)C)cn4)CC3)COC2)C(C)(C)C)cc1 (stereo partly drawn) [Example 803, N-((1r,3r)-3-(3-chloro-4-cyanophenoxy)-2,2,4,4-tetramethylcyclobutyl)-6-(4-(3-(4-(((S)-1-((2S,4R)-4-hydroxy-2-(((S)-1-(4-(4-methylthiazol-5-yl)phenyl)ethyl)carbamoyl)pyrrolidin-1-yl)-3,3-dimethyl-1-oxobutan-2-yl)amino)-4-oxobutyl)oxetan-3-yl)piperazin-1-yl)nicotinamide]		> 0.501 µM	26 to 50%	
CC(C)(C)[C@H](NC(=O)COCCCCCNc1ccc(C(=O)N[C@H]2C(C)(C)[C@H](Oc3ccc(C#N)c(Cl)c3)C2(C)C)cc1)C(=O)N1C[C@H](O)C[C@H]1C(=O)NCc1ccc(-n2ncnn2)cc1 [Example 506]				DC50 [3]: < 0.05 µM; Dmax [4]: 51 to 70%
Cc1ncsc1-c1ccc([C@H](C)NC(=O)C2C[C@@H](O)CN2C(=O)C(NC(=O)CN2CCC(CCN3CCN(c4ccc(C(=O)NC5C(C)(C)C(Oc6ccc(C#N)c(Cl)c6)C5(C)C)cn4)CC3)CC2)C(C)(C)C)cc1 (stereo partly drawn) [Example 827, N-((1r,3r)-3-(3-chloro-4-cyanophenoxy)-2,2,4,4-tetramethylcyclobutyl)-6-(4-(2-(1-(2-(((S)-1-((2S,4R)-4-hydroxy-2-(((S)-1-(4-(4-methylthiazol-5-yl)phenyl)ethyl)carbamoyl)pyrrolidin-1-yl)-3,3-dimethyl-1-oxobutan-2-yl)amino)-2-oxoethyl)piperidin-4-yl)ethyl)piperazin-1-yl)nicotinamide]		< 0.05 µM	> 71%	
COc1cc(-c2scnc2C)ccc1CNC(=O)C1C[C@@H](O)CN1C(=O)[C@@H](NC(=O)COCCN1CCN(c2ccc(C(=O)N[C@H]3C(C)(C)[C@H](Oc4ccc(C#N)c(Cl)c4)C3(C)C)cn2)CC1)C(C)(C)C (stereo partly drawn) [Example 793, N-((1r,3r)-3-(3-chloro-4-cyanophenoxy)-2,2,4,4-tetramethylcyclobutyl)-6-(4-(2-(2-(((S)-1-((2S,4R)-4-hydroxy-2-((2-methoxy-4-(4-methylthiazol-5-yl)benzyl)carbamoyl)pyrrolidin-1-yl)-3,3-dimethyl-1-oxobutan-2-yl)amino)-2-oxoethoxy)ethyl)piperazin-1-yl)nicotinamide]		< 0.05 µM	> 71%	
CC(C)(C)[C@H](NC(=O)COCCCOCCCCOc1ccc(N2C(=S)N(c3cc(Cl)c(C#N)cc3F)C(=O)C2(C)C)cc1F)C(=O)N1C[C@H](O)C[C@H]1C(=O)NCc1ccc(-c2cnco2)cc1 [Example 368]				DC50 [1]: < 0.05 µM
Cc1ncsc1-c1ccc([C@H](C)NC(=O)[C@@H]2C[C@@H](O)CN2C(=O)C(C(C)C)n2cnc(CCCCOCCCCCOc3ccc(N4C(=S)N(c5ccc(C#N)c(C(F)(F)F)c5)C(=O)C4(C)C)cc3)c2)cc1 (stereo partly shown) [Example 650, 1-(2-(4-(4-((5-(4-(3-(4-cyano-3-(trifluoromethyl)phenyl)-5,5-dimethyl-4-oxo-2-thioxoimidazolidin-1-yl)phenoxy)pentyl)oxy)butyl)-1H-imidazol-1-yl)-3-methylbutanoyl)-4-hydroxy-N-(1-(4-(4-methylthiazol-5-yl)phenyl)ethyl)pyrroli-dine-2-carboxamide]	< 25%			DC50 (read-out: VCaP DC50; VCaP cells; Table 36): > 0.501 µM
Cc1ncsc1-c1ccc([C@H](C)NC(=O)[C@@H]2C[C@@H](O)CN2C(=O)[C@H](c2ncc(CCCCCNc3ccc(C(=O)N[C@H]4C(C)(C)[C@H](Oc5ccc(C#N)c(Cl)c5)C4(C)C)nc3)n2C)C(C)C)cc1 [Example 692, N-((1r,3r)-3-(3-chloro-4-cyanophenoxy)-2,2,4,4-tetramethylcyclobutyl)-5-((5-(2-((S)-1-((2S,4R)-4-hydroxy-2-(((S)-1-(4-(4-methylthiazol-5-yl)phenyl)ethyl)carbam-oyl)pyrrolidin-1-yl)-3-methyl-1-oxobutan-2-yl)-1-methyl-1H-imidazol-5-yl)pentyl)amino)picolin-amide]		> 0.501 µM	< 25%	
